Experiment [1] relates to Hedgehog pathway. The following applies: after single administration; cited from earlier work.
The test system of experiment [2] is preclinical in vivo tumor models. Conditions: medulloblastoma, SCLC, NSCLC, skin, head and neck, ovarian cancer; cited from earlier work.
Experiment [3] concerns Basal Cell Carcinoma (BCC) lesion. In words: BCC lesion in a patient before and after treatment. In kind it is in vivo, human. Conditions: six months after treatment.
In experiment [4] the test system is human cell lines derived from patients with cancer. The following applies: pancreatic cancer, medulloblastoma, lung cancer, multiple myeloma, leukemias, lymphomas; cited from earlier work.
The test system of experiment [5] is Gli1. Put plainly: Nuclear Gli1 immunohistochemical staining of BCC lesion biopsies pre- and post-treatment. In kind it is in vivo, human. On the procedure: For immunohistochemical (IHC) detection, tissue samples can be fixed in 10% neutral buffered formalin at room temperature before processing for paraffin embedding. The length of fixation depends on the size of the tissue, for example, overnight but not more than 22-24 hours for large tissues; and no more than 2 hours for small core or needle biopsies. The fixed tissues are sectioned to 7 microns […] and mounted on Superfrost Microscope™ slides (Fisher Scientific).
Prior to incubation with anti-Gli1 antibody, antigen retrieval can be performed to break the protein cross-links formed by formalin fixation and thereby reveal hidden antigens. Antigen retrieval buffers with different buffer compositions and pH are commercially available, for example, CC1 (Tris/EDTA, pH 8.0; Ventana, Cat. No. 950-124); CC2 (citrate, pH 6.0; Ventana, Cat. No. 950-123); citrate buffer (pH 6.0; Invitrogen, Cat. No. 00-5000); Target Retrieval Solution (citrate, pH 6.1; Dako, Cat. No. S170084); Target Retrieval Solution (Tris/EDTA, pH 9.0; Dako, Cat. No. S236884); Diva Decloaker (citrate, pH 6.2; Biocare, Cat. No. DV2004 mM); and EDTA Decloaker (EDTA based, pH 8.5; Biocare, Cat. No. CB917 L).
Anti-Gli1 antibodies that can be used to detect nuclear Gli1 protein in tumor samples are commercially available. Exemplary anti-Gli1 antibodies include, e.g., rabbit polyclonal and monoclonal antibody from Cell Signaling Technology (Cat. Nos. 2553 and 3538, respectively); rabbit polyclonal antibody (H-300) from Santa Cruz Biotechnology (Cat. No. se-20687, described in Chung et al., J. Clin. Oncol. 2011; 29(10):1326-34); rabbit polyclonal antibody from Abcam (Cat. No. ab92611); rabbit polyclonal antibody from Abnova (Cat. No. PAB10214); rabbit polyclonal antibody from GenWay Biotech (Cat. No. 18-732-292074); rabbit polyclonal antibody from LifeSpan BioSciences (Cat. No. LS-C66529-50); rabbit polyclonal antibody from Novus Biologicals (Cat. No. NBP1-03294); mouse polyclonal antibody from ProSci (Cat. No. 49-519); goat polyclonal antibody from R&D Systems (Cat. No. AF3455); and rabbit polyclonal antibody from United States Biological (Cat. No. G2035-51A).
Detection of tumor nuclear Gli1 staining in basal cell carcinomas (BCC) was performed using the protocols described in Example 9. FIGS. 23C and 23D show nuclear staining of Gli1 in biopsy samples of a BCC lesion pre- and 22-day post-treatment of IPI-926.
The definition of H-score is known in the art, e.g., as described in Detre, S. et al. (1995) J. Clin. Pathol. […] The intensity in the malignant cell nuclei can be scored as 0, 1, 2, or 3. […] The total number of cells in each field and the number of cells stained at each intensity are counted. The average percentage positive can be calculated and analyzed as described in Detre, S. et al. (1995) supra.

For experiment [6], the system named is Bx-PC3 tumors. Put plainly: Growth of Bx-PC3 tumors in mice. In kind it is in vivo. The following applies: single agents and combination. The text has this:
Bevacizumab, a monoclonal antibody, exerts its activity by neutralizing VEGF, a factor important of the proliferation and survival of endothelial cells. […] In the same study, the relative effect of these agents was explored by measuring the mRNA expression of PECAM-1, a marker of endothelial cells and RGS5, a marker of pericytes. […] The role of the vasculature and its supporting pericyte population in the mechanism of action of IPI-926 continues to be explored.
For in vivo studies, tumors were grown in male NCR-nu/nu mice by subcutaneous injection of 5×10^6 cells. Tumor growth was monitored using calipers. When tumors reached an approximate size of 200 mm^3, tumor bearing animals were randomized into treatment arms and administered agents or vehicles as described.

Experiment [7] deals with Gli1 mRNA. In words: Real-time RT-PCR of Gli1 mRNA in laser capture microdissected BCC tumor samples. In kind it is in vivo, human. Conditions: post-treatment versus pre-treatment, BCC patients. On the procedure: As a comparison, real-time RT-PCR was performed using RNA extracted from Laser Capture Microdissected tumor samples from BCC patients. The ddCt method was used to calculate the real-time PCR results (Livak K. J. et al. (2001) Methods. 25(4):402-8). FIG. 27 is a bar graph depicting the quantitation of Gli1 mRNA pre- and post treatment with IPI-926. Although a decrease level of Gli1 mRNA is detected post-treatment, the level of reduction is not as pronounced as that detected by evaluating nuclear localization of Gli1.

Where [8] appears, read: post treatment versus pre treatment BCC sample.

In the case of `CC1=C2C[C@H]3[C@@H](CC[C@@H]4C[C@H](NS(C)(=O)=O)CC[C@@]43C)[C@@H]2CC[C@@]2(C1)O[C@@H]1C[C@H](C)CN[C@H]1[C@H]2C` [IPI-926], the “Hedgehog pathway inhibition in stromal cells” value in experiment [1] was “rapid and sustained Hedgehog pathway inhibition”. Besides, the “tumor growth in preclinical in vivo models” value in experiment [2] is “tumor growth inhibition”. Moreover, the “size and morphology of BCC lesion” value in experiment [3] is on record as “dramatic reduction”. In experiment [4], the “in vitro growth of human cell lines” value is listed as “inhibit”. In addition, in experiment [5] (setting [8]), the “overall reduction of Gli1 protein staining” value is reported as 57% and the “reduction in nuclear Gli1 stain” value was found to be 60%. The “nuclei stained positive for Gli1” value in experiment [5] (post-treatment (27% before treatment)) was found to be 16%. The “H-score of Gli1 staining” value in experiment [5] (post-treatment (100 before treatment)) is reported as 57. The “activity on the growth of Bx-PC3 tumors” value in experiment [6] is recorded as “approximately the same single agent activity”. Further, the “level of Gli1 mRNA” value in experiment [7] was “decrease”.

These data come from patent publication US20150025012A1, “METHODS AND COMPOSITIONS FOR IDENTIFICATION, ASSESSMENT AND TREATMENT OF CANCERS ASSOCIATED WITH HEDGEHOG SIGNALING” (Infinity Pharmaceuticals, Inc., priority 2010, published 2015).
